A short description of data set [1]: 1-Naphthaldehyde decay/depletion in human liver microsomes and Supersomes. The class given is in vitro ADME.
A short description of data set [2]: Time-course decay of TBF-A in HLM, control Supersomes and isozyme Supersomes. The class given is in vitro ADME, human.
The target of a further data set is CYP2C19 (Homo sapiens, UniProt P33261). Nature of the data set: Steady-state kinetics by recombinant CYP2C19 Supersomes. The class given is in vitro ADME.
For data set [3] the following is noted: cited from earlier work.
Substrate in data set [4]: CN(C/C=C/C#CC(C)(C)C)Cc1cccc2ccccc12
Nature of the data set: cells, lysate or membranes named. The conditions noted are these: CYP2C19, pH 7.4.

Where [5] appears, read: 50 μM TBF-A, normalized per mg/protein.
[6] abbreviates: step 2.2a, metabolite 1-naphthyl-methylamine, CYP2C19.
Where [7] appears, read: step 2.2b, metabolite 1-naphthaldehyde, CYP2C19.

Read-outs that look alike come from different tables or passages of the source.

Regarding `O=Cc1cccc2ccccc12` [1-naphthaldehyde], in data set [1] (50 μM 1-naphthaldehyde, active or heat-inactivated human liver microsomes, presence or absence of NADPH), the “effect of microsomes and NADPH on decay or disappearance” value is “not significantly affected”. Further, the “depletion in Supersomes compared with human liver microsomes” value in data set [1] (10 and 50 μM 1-naphthaldehyde, NADPH, CYP2C19 and 3A4 Supersomes, after 30 min) is “more significant decrease”.
For the molecule `CC(C)(C)C#CC=CC=O` [TBF-A, 6,6-dimethyl-2-hepten-4-ynal], in data set [2] (50 μM TBF-A decay), the “end-point plateau for CYP3A4 higher than that of HLM” value is given as approximately 4 fold; the “end-point plateau of CYP2C19 higher than for both HLM and control Supersomes” value was “roughly 2 fold”. In addition, in data set [2] (setting [5]), the “decay faster in HLM compared to CYP2C19 Supersomes” value is 13% and the “decay faster in HLM compared to CYP3A4 Supersomes” value stood at 55%.
`CC(C)(C)C#C/C=C/CNCc1cccc2ccccc12` [desmethyl-terbinafine]: on CYP2C19 (CYP2C19), the “Km higher than the value for terbinafine N-denaphthylation (Pathway 3)” value is “about 5 fold” and the “decrease in N-denaphthylation catalytic efficiency from terbinafine to desmethyl-terbinafine” value is recorded as approximately 15 fold. Besides, the “higher rate of turnover (Vmax) than for the parent drug” value on CYP2C19 (N-denaphthylation by CYP2C19) is given as “about 3 fold”. In addition, the “efficiency of 1-naphthyl methylamine formation by CYP2C19 relative to 3A4” value on CYP2C19 (Pathway 2.2a) is reported as “about 3 fold”. In addition, the “higher Vmax for CYP2C19” value at CYP2C19 (formation of the desmethyl-terbinafine dihydrodiols, loss of the methyl group) is “approximately 10 fold”. Also, the Michaelis-Menten constant (Km) at CYP2C19 (read-out: Km (affinity), CYP2C19, oxidative nondealkylation reactions) is less than 100 µM. For the same molecule, at CYP2C19 (setting [6]), the Km was 220 ± 55 µM, the V/K was 3.7 and the Vmax is on record as 810 ± 92 pmol/min/nmol of protein. In addition, at CYP2C19 (setting [7]), the Km was found to be 150 ± 58 µM, the V/K was determined as 8.7 and the Vmax was 1300 ± 59 pmol/min/nmol of protein.
For `CN(C/C=C/C#CC(C)(C)C)Cc1cccc2ccccc12` [terbinafine], the “time remaining at therapeutic levels in the body after therapy ceases” value in data set [3] (due to bioaccumulation) is on record as “up to a month”. In addition, in data set [3] (reported), the plasma levels is reported as 1 mg/L and the protein binding is recorded as more than 99%. Also, the Michaelis constant (Km) at 30 min at CYP2C19 (human, recombinant CYP2C19 Supersomes, pH 7.4, Km (affinity), CYP2C19, oxidative nondealkylation reactions) is less than 100 µM.

B1: CYP2C19 (Homo sapiens) (protein)
chain: MDPFVVLVLCLSCLLLLSIWRQSSGRGKLPPGPTPLPVIGNILQIDIKDVSKSLTNLSKIYGPVFTLYFGLERMVVLHGYEVVKEALIDLGEEFSGRGHFPLAERANRGFGIVFSNGKRWKEIRRFSLMTLRNFGMGKRSIEDRVQEEARCLVEELRKTKASPCDPTFILGCAPCNVICSIIFQKRFDYKDQQFLNLMEKLNENIRIVSTPWIQICNNFPTIIDYFPGTHNKLLKNLAFMESDILEKVKEHQESMDINNPRDFIDCFLIKMEKEKQNQQSEFTIENLVITAADLLGAGTETTSTTLRYALLLLLKHPEVTAKVQEEIERVIGRNRSPCMQDRGHMPYTDAVVHEVQRYIDLIPTSLPHAVTCDVKFRNYLIPKGTTILTSLTSVLHDNKEFPNPEMFDPRHFLDEGGNFKKSNYFMPFSAGKRICVGEGLARMELFLFLTFILQNFNLKSLIDPKDLDTTPVVNGFASVPPFYQLCFIPV
Consider B1, for which the Michaelis-Menten constant (Km) came out at 120 ± 22 µM in data set [4] (other: step 1.1, metabolite N-methyl-1-naphthyl-methylamine); 37 ± 6.7 µM in data set [4] (other: step 2.1, metabolite desmethyl-terbinafine); 3.0 ± 0.83 µM in data set [4] (other: step 3.1, metabolite 1-naphthaldehyde).

These data come from paper PMC6692898 (Chemical research in toxicology, 2019).
